According to article PMC3445474 (PLoS ONE, 2012):
Where “and” joins values, the source holds several entries; their conditions need not be identical. Equal entries are not always repeated. Where two headings read alike, the source gives them in different places.

Key:
[1] = system: viral and bacterial neuraminidases; assay type: biochemical, influenza viruses, bacteria, human saliva; settings: read-out: IC50, viral, bacterial and saliva neuraminidases
B/Johannesburg/99 virus = test: Virus growth inhibition assay in MDCK cells (progeny virus by plaque assay); assay type: cell-based, influenza B virus; settings: for activity at 0.25 µM: read-out: Virus yield (progeny virus, % of control)
Experimental: The infectivity of viruses was determined by plaque assay as described below. Ten-fold serial dilutions of virus samples were made in Hanks balanced salt solution (HBSS; GIBCO, Gland Island, NY, USA) and 0.1 ml of the dilutions was inoculated on MDCK cell monolayers in 6-well tissue culture plates (Corning, Lowell, MA, USA). After adsorption of the virus onto the cells for 30 min at room temperature, 1.6 ml of Leibovitz’s L15 medium (GIBCO, Gland Island, NY, USA) containing 0.6% SeaKem ME agarose (Lonza, Basel, Switzerland), 1.5% gelatin (Nacalai, Kyoto, Japan) and 2.5 µg/ml TPCK-trypsin was added to each well and allowed to solidify. The plates were incubated for 3 days at 34°C and the number of plaques was counted. Infectivity was expressed as plaque forming units (pfu) per ml.
The inhibition of virus growth by neuraminidase inhibitors in the presence or absence of bacterial neuraminidase was assayed by measuring the released progeny virus in the culture fluid of infected cells. MDCK cells seeded on 12-well tissue culture plates were inoculated with 50 µl of virus suspension at a MOI of 0.001 or 0.01. After the adsorption for 1 h on ice, 1 ml MEM supplemented with 2.5 µg/ml TPCK-trypsin containing neuraminidase inhibitor and/or bacterial neuraminidase was added to each well. At the indicated times of incubation at 37°C in 5% CO2, culture media were harvested and the virus titers, performed in triplicate wells, were determined by plaque assay.

A/Udorn/72 virus = test: microbe, parasite or virus in culture; assay type: cell-based, influenza A virus; settings: for activity at 0.25 µM: MDCK, read-out: Virus yield (progeny virus, % of control)
[2] = set-up: method as in PMID 10858364; settings: 6 h after oral inhalation of 10 mg of zanamivir powder; cited from earlier work
[3] = Concentration of zanamivir in sputum after oral inhalation (clinical setting); assay type: in vivo; settings: minutes after oral inhalation of 10 mg of zanamivir powder
[4] = system: bacterial and salivary neuraminidases (S. pneumoniae, saliva, A. ureafaciens, V. cholerae RDE); assay type: biochemical, human saliva
[5] = system: neuraminidase of influenza viruses (A/Udorn/72(H3N2), A/Chiba/2009(H1N1)pdm and B/Johannesburg/99); assay type: biochemical, influenza virus

SMILES: CC(=O)N[C@H]1[C@H]([C@H](O)[C@H](O)CO)OC(C(=O)O)=C[C@@H]1O [DANA, 2-Deoxy-2,3-dehydro-N-acetylneuraminic acid]
- IC50 [1]: 2 to 20 µM
- Restoration of virus production by S. pneumoniae culture supernatant (B/Johannesburg/99 virus; 2.5 mM DANA + S. pneumoniae culture supernatant): not restored
- Effect on influenza virus production (B/Johannesburg/99 virus; 2.5 mM DANA, MDCK cells, MOI 0.001, 40 hpi): inhibited influenza virus production
- Effect on influenza virus production (A/Udorn/72 virus): inhibited influenza virus production
- Restoration of virus production by S. pneumoniae culture supernatant (A/Udorn/72 virus): not restored

SMILES: CC(=O)N[C@H]1[C@H]([C@H](O)[C@H](O)CO)OC(C(=O)O)=C[C@@H]1N=C(N)N [zanamivir, Zanamivir]
- Concentration of zanamivir in sputum [2]: ≤ 1,441 ng/ml and ≤ 4.3 µM
- Concentration of zanamivir in sputum, calculated [3]: ≤ 5,870 ng/ml and ≤ 17.5 µM
- Concentrations at which bacterial neuraminidases were inhibited ([4]; Figure 2A): above 10 µM
- IC50 ([4]; range over S. pneumoniae, saliva, A. ureafaciens, V. cholerae RDE): 100 to 5000 µM
- Potency against influenza virus NA relative to bacterial neuraminidases [5]: approximately a million
- activity at 0.25 µM (B/Johannesburg/99 virus; 250 nM zanamivir + Streptococcus pneumoniae culture supernatant (6 µunits/ml neuraminidase activity), MDCK cells, MOI 0.001, 40 hpi): 92%
- activity at 0.25 µM (B/Johannesburg/99 virus; Influenza B virus, 250 nM zanamivir, MDCK cells, MOI 0.001, 40 hpi): 0.4%
- activity at 0.25 µM (A/Udorn/72 virus; Influenza A virus): 2%
- activity at 0.25 µM (A/Udorn/72 virus; Streptococcus pneumoniae): 84%
